Laboratory results published in patent US4383113A, “Agricultural sulfonamides” (E. I. Du Pont de Nemours and Company, priority 1981, dated 1983).

How the values were obtained:
Assay in all cases: Test A pre-emergence
Conditions in all cases: 0.4 kg/ha
wild oats = format: in vivo, Avena fatua; parameters: key: 0 = no effect, 10 = maximum effect; letter = response symbol
Method in brief: (§1)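 Seeds and tubers were treated preemergence in a growth medium with compound in a nonphytotoxic solvent, against untreated controls; emerged plants such as two-leaf barnyardgrass and five-leaf cotton were sprayed postemergence, against solvent-sprayed controls. After sixteen days in a greenhouse, response was rated visually from 0 to 10.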

soybean = format: in vivo; parameters: key: 0 = no effect, 10 = maximum effect; letter = response symbol
Method in brief: as §1

wheat = format: in vivo; parameters: key: 0 = no effect, 10 = maximum effect; letter = response symbol
Method in brief: as §1

sorghum = format: in vivo; parameters: key: 0 = no effect, 10 = maximum effect; letter = response symbol
Method in brief: as §1

rice = format: in vivo; parameters: key: 0 = no effect, 10 = maximum effect; letter = response symbol
Method in brief: as §1

cassia = format: in vivo, Cassia tora; parameters: key: 0 = no effect, 10 = maximum effect; letter = response symbol
Method in brief: as §1

morningglory = format: in vivo, Ipomoea spp.; parameters: key: 0 = no effect, 10 = maximum effect; letter = response symbol
Method in brief: as §1

crabgrass = format: in vivo, Digitaria spp.; parameters: key: 0 = no effect, 10 = maximum effect; letter = response symbol
From the text: (§2) The activity of these compounds was discovered in a number of greenhouse and field tests. The ratings are based on a numerical scale extending from 0=no effect, to 10=maximum effect. The accompanying descriptive symbols have the following meanings:
(§3) Seeds of crabgrass (Digitaria spp.), barnyardgrass (Echinochloa crusgalli), wild oats (Avena fatua), cassia (Cassia tora), morningglory (Ipomoea spp.), cocklebur (Xanthium spp.), sorghum, corn, soybean, rice, wheat and nutsedge tubers (Cyperus rotundus) were planted in a growth medium and treated preemergence with a nonphytotoxic solvent solution of the compounds of Table XII. Other batches of seeds and tubers for all of the foregoing weed and crop plants were planted at the same time as controls. The control plantings were untreated; i.e., neither any compound nor any solvent was applied. At the same time, cotton having five leaves (including cotyledonary ones), bush beans with the third trifoliate leaf expanding, crabgrass with two leaves, barnyardgrass with two leaves, wild oats with two leaves, cassia with three leaves (including cotyledonary ones), morningglory with four leaves (including the cotyledonary ones), cocklebur with four leaves (including the cotyledonary ones), sorghum with four leaves, corn with four leaves, soybean with two cotyledonary leaves, rice with three leaves, wheat with one leaf, and nutsedge with three-five leaves were sprayed with a nonphytotoxic solvent solution of the compounds of Table XII. Other groups of all the same weed and crop plants were sprayed with the same nonphytotoxic solvent so as to provide control plants. Preemergence and postemergence treated plants and controls were maintained in a greenhouse for sixteen days, then all treated plants were compared with their respective controls and rated visually for response to treatment.

cocklebur = format: in vivo, Xanthium spp.; parameters: key: 0 = no effect, 10 = maximum effect; letter = response symbol
Method in brief: as §1

barnyardgrass = format: in vivo, Echinochloa crusgalli; parameters: key: 0 = no effect, 10 = maximum effect; letter = response symbol
Method in brief: as §1

corn = format: in vivo; parameters: key: 0 = no effect, 10 = maximum effect; letter = response symbol
Method in brief: as §1

nutsedge = format: in vivo, Cyperus rotundus
From the text: as §2, §3

Structure (SMILES)	response rating (wild oats)	response rating (soybean)	response rating (wheat)	response rating (sorghum)	response rating (rice) [H]	response rating (cassia)	response rating (morningglory)	response rating (crabgrass)	response rating (cocklebur)	response rating (barnyardgrass)	response rating (corn)	response rating (nutsedge) [G]
COC(=O)c1cc(F)ccc1S(=O)(=O)NC(=O)Nc1nc(C)nc(OC)n1 [drawing 517]	2G	9H	0	9G	9	9G	9G	5G	–	–	–	–
COC(=O)c1cc(Cl)c(Cl)cc1S(=O)(=O)NC(=O)Nc1nc(C)cc(OC)n1 [drawing 519]	4G	–	5G	–	9	0	8G	2G	8G	9G	–	–
CCOCCOC(=O)c1ccccc1S(=O)(=O)NC(=O)Nc1nc(Cl)cc(Cl)n1 [drawing 520]	0	0	0	8G	8	0	3G	2G	–	–	1C	–
C=CCCC(C)OC(=O)c1ccccc1S(=O)(=O)NC(=O)Nc1nc(C)nc(OC)n1 (stereo not shown) [drawing 522]	–	9H	7G	9H	–	9G	9G	–	9G	–	–	9
COc1nc(C)nc(NC(=O)NS(=O)(=O)c2ccccc2C(=O)OC(C)CCl)n1 (stereo not shown) [drawing 526]	–	9H	4G	9H	9	8G	9G	–	9G	–	9G	–
COC(=O)c1cc([N+](=O)[O-])ccc1S(=O)(=O)NC(=O)Nc1nc(C)cc(OC)n1 [drawing 529]	–	9H	9G	–	9	9G	9G	–	9G	–	–	–
CCCCCCCCCCCCNC(=O)c1ccccc1S(=O)(=O)NC(=O)Nc1nc(C)nc(OC)n1 [drawing 534]	6G	–	6G	–	9	8G	9G	–	8G	9H	8G	–
CCCCCCOC(=O)c1ccccc1S(=O)(=O)NC(=O)Nc1nc(C)cc(COC)n1 [drawing 538]	0	0	0	3G	8	0	0	0	0	2G	–	–
